# From patent US6538001B1, “Crystalline modification of 5-fluoro-1-(tetrahydro-2-furyl) uracil and complex compounds based thereon, producing antineoplastic effect” (priority 2001, dated 2003)
# Legend:
# [1] = system: uterine neck cancer cells; assay: Cytotoxicity (MTT) on a culture of uterine neck cancer cells; assay type: cell-based; design: Effect on the proliferation of cancer cells: dose or concentration left out as unconfirmed; conditions: for Optical density at 540 nm: 4 days
# Description: The determination was carried out by following the known procedure (Mosmann N. T., J. Immunology Methods, 1983, vol. 65, 55-63, Carmichel J. et al., Cancer Res., 1987, vol. 47, 936-946) on a culture of uterine neck cancer cells. The cells were grown at 37° C. on the RPMI 1640 medium with additives of a 10%embryonal serum of cows and 200 u/ml of gentamicin. CO2 content in the incubator atmosphere was 10%. The cells which were in the exponential phase of growth were suspended with trypsin and inoculated in an amount of 4×10^3 into each socket of a 96-socket dish for monolayer cultures. Solutions of samples of the preparations to be investigated were prepared by dissolving 23 mg of each preparation in 10 ml of a culture broth, 10^−2 M solutions being thus obtained. These were starting solutions for obtaining solutions of a lower concentration by diluting them with the culture broth. Directly before adding the solutions to the cells, these solutions were sterilized by filtering through millipore filters. One day after the inoculation of the cells, solutions of samples of the preparations to be investigated in prescribed concentrations were added into each socket of the dish. After that the cells grew for another 4 days.
# All in all, 9 concentrations of each of the 4 samples of the investigated preparations were tested.
# Quantitative estimation of the cytotoxicity of the investigated preparations was carried out with the use of 3-(4,5-dimethylthiazol-2-yl)-2,5-diphenyltetrazolium bromide (MTT). […] 0.5 mg/ml was added into each socket of the dish 4 hours before the completion of cells cultivation. On completion of the incubation, the culture broth was removed from the dish sockets, the formasane crystals were dissolved, and the cells were scanned on an automatic Multiscan MCC/340P reader at the 540 nm wavelength. The results were calculated in percent of the cells subjected to the effect of the investigated preparations, absorbed at 540 nm, as against the absorption of control cells.
# The action of each concentration of the investigated preparations on cancer cells was estimated from the results of 4-6 independent experiments, treated by methods of mathematical statistics.
# [2] = Determination of solubility (USP XXIII article Solubility); assay type: physicochemical
# Description: The solubility was determined in accordance with the requirements set out in the article “Solubility”, USPXXTIII (1995, p. 2071).
smiles,measurement,setting,value
"O=c1[nH]c(=O)n(C2CCCO2)cc1F (stereo not drawn) [Form V of tegafur, 5-fluoro-1-(tetrahydro-2-furyl)uracil]",Optical density at 540 nm,"[1]; 5 × 10^−3 M (on conversion to tegafur), MTT",0.25 ± 0.02
same,Optical density at 540 nm,"[1]; 5 × 10^−4 M (on conversion to tegafur), MTT",0.44 ± 0.05
same,Optical density at 540 nm,"[1]; 5 × 10^−5 M (on conversion to tegafur), MTT",0.70 ± 0.03
same,Optical density at 540 nm,"[1]; 5 × 10^−6 M (on conversion to tegafur), MTT",0.73 ± 0.03
same,Optical density at 540 nm,"[1]; 10^−2 M (on conversion to tegafur), MTT",0.16 ± 0.01
same,Optical density at 540 nm,"[1]; 10^−3 M (on conversion to tegafur), MTT",0.35 ± 0.02
same,Optical density at 540 nm,"[1]; 10^−4 M (on conversion to tegafur), MTT",0.56 ± 0.06
same,Optical density at 540 nm,"[1]; 10^−5 M (on conversion to tegafur), MTT",0.73 ± 0.08
same,Optical density at 540 nm,"[1]; 10^−6 M (on conversion to tegafur), MTT",0.79 ± 0.08
same,Inhibition of proliferation more intensive than tegafur,"[1]; at the concentration of 10^−4 M, relative to tegafur",70%
same,Concentration at which the proliferation of cells is inhibited,"[1]; uterine neck cancer cells, MTT",50 µM
same,Solubility compared with pharmacopeial tegafur,[2]; in words,higher than the solubility of pharmacopeial tegafur
same,"Solubility, % with respect to tegafur",[2]; temperature of solvent 20 °C,187.5%
"O=c1[nH]c(=O)n(C2CCCO2)cc1F (stereo not drawn) [pharmacopeial tegafur, 5-fluoro-1-(tetrahydro-2-furyl)uracil, reference compound]",Optical density at 540 nm,"[1]; 5 × 10^−3 M (on conversion to tegafur), MTT, listed as Pharmacopeial tegafur",0.28 ± 0.005
same,Optical density at 540 nm,"[1]; 5 × 10^−4 M (on conversion to tegafur), MTT, listed as Pharmacopeial tegafur",0.56 ± 0.12
same,Optical density at 540 nm,"[1]; 5 × 10^−5 M (on conversion to tegafur), MTT, listed as Pharmacopeial tegafur",0.80 ± 0.10
same,Optical density at 540 nm,"[1]; 5 × 10^−6 M (on conversion to tegafur), MTT, listed as Pharmacopeial tegafur",0.76 ± 0.08
same,Optical density at 540 nm,"[1]; 10^−2 M (on conversion to tegafur), MTT, listed as Pharmacopeial tegafur",0.26 ± 0.04
same,Optical density at 540 nm,"[1]; 10^−3 M (on conversion to tegafur), MTT, listed as Pharmacopeial tegafur",0.45 ± 0.06
same,Optical density at 540 nm,"[1]; 10^−4 M (on conversion to tegafur), MTT, listed as Pharmacopeial tegafur",0.81 ± 0.13
same,Optical density at 540 nm,"[1]; 10^−5 M (on conversion to tegafur), MTT, listed as Pharmacopeial tegafur",0.81 ± 0.09
same,Optical density at 540 nm,"[1]; 10^−6 M (on conversion to tegafur), MTT, listed as Pharmacopeial tegafur",0.76 ± 0.05
same,Effect on the proliferation of cancer cells,[1]; range of concentrations of 10^−6,does not affect the proliferation of cancer cells
same,solubility,"[2]; 20 °C, thermodynamic from solid, temperature of solvent 20 °C",8000 µg/mL
